Reference: patent US20210227854A1, “USE OF D-RIBOSE TO ENHANCE ADAPTATION TO PHYSICAL STRESS” (Bioenergy Life Science, Inc., priority 2014, published 2021)

Columns and labels:
[1] = Blood urea nitrogen (BUN) around three days of high-intensity exercise; format: in vivo, human; details: for Change in BUN levels: Unfit Subgroup, p=0.88
Protocol: A high-intensity exercise protocol was designed as a double-blind, crossover study to assess the influence of D-Ribose adaptation to physical stress. Specifically, D-Ribose and a control (Dextrose) were administered on separate subjects at a dosage of ten grams per day (10 g/day). A variety of physiological parameters were measured in the subjects administered D-Ribose (DR) supplementation (i.e., the DR subjects) versus the subjects administered Dextrose (DEX) supplementation (i.e., the DEX subjects). To test D-ribose for adaptation, the twenty-six (26) adult subjects were further divided into two subgroups based on their fitness level (i.e., peak oxygen uptake (VO2 max) results. The first subgroup comprised subjects with higher VO2 max results (i.e., the “Fit Subgroup”) and the second subgroup comprised subjects with lower VO2 max results (i.e., the “Unfit Subgroup”). The Unfit Subgroup consisted of six (6) females and seven (7) males. The average age of the Unfit Subgroup was 27.7±3.4 years and the average peak VO2 of the Unfit Subgroup was 39.9±4.1 mL/kg/min. The Fit Subgroup consisted of four (4) females and nine (9) males. The average age of the Fit Subgroup was 27.6±3.5 year and the average peak VO2 of the Fit Subgroup was 52.2±4.3 mL/kg/min. […] Physiologic parameters were measured and hydration was provided to the subjects during the exercise session. […] Blood glucose was measured at all of the above time points except at twenty-four (24) hours post-exercise. Creatine kinase and BUN levels were measured at the pre-exercise (−10 min.) point during the three (3) days of exercise and twenty-four (24) hours post-exercise following the third (last) exercise session. Heart rate was recorded using a Polar HR monitor. Blood glucose levels were measured using a Bayer glucose monitor. Blood lactate levels were measured by an AccuSport Lactate Analyzer. Creatine kinase and BUN were measured utilizing an Abaxis Piccolo analyzer. Power data from the time trial performance test was assessed with the Sports Medicine Industries (SMI) software package.

[2] = Rating of perceived exertion (RPE) during exercise; format: in vivo, human; details: for RPE (Borg 6-20 scale): 10 g/day, mean ± SD
Protocol: A high-intensity exercise protocol was designed as a double-blind, crossover study to assess the influence of D-Ribose adaptation to physical stress. Specifically, D-Ribose and a control (Dextrose) were administered on separate subjects at a dosage of ten grams per day (10 g/day). A variety of physiological parameters were measured in the subjects administered D-Ribose (DR) supplementation (i.e., the DR subjects) versus the subjects administered Dextrose (DEX) supplementation (i.e., the DEX subjects). To test D-ribose for adaptation, the twenty-six (26) adult subjects were further divided into two subgroups based on their fitness level (i.e., peak oxygen uptake (VO2 max) results. The first subgroup comprised subjects with higher VO2 max results (i.e., the “Fit Subgroup”) and the second subgroup comprised subjects with lower VO2 max results (i.e., the “Unfit Subgroup”). The Unfit Subgroup consisted of six (6) females and seven (7) males. The average age of the Unfit Subgroup was 27.7±3.4 years and the average peak VO2 of the Unfit Subgroup was 39.9±4.1 mL/kg/min. The Fit Subgroup consisted of four (4) females and nine (9) males. The average age of the Fit Subgroup was 27.6±3.5 year and the average peak VO2 of the Fit Subgroup was 52.2±4.3 mL/kg/min. The protocol of the double-blind crossover study involved an initial baseline assessment, followed by two separate day assessments after consuming either a DR or DEX supplement. Each exercise session entailed measurements of creatine kinase (CK), blood urea nitrogen (BUN), glucose, heart rate (HR), rate of perceived exertion (RPE), and power output (PO) measurements. […] The Likert scale (0-10 points) was used to subjectively assess quadriceps muscle soreness, overall fatigue, appetite, perceived performance, and sleep quality. These scales were completed prior to and following each exercise session.

## O=C[C@H](O)[C@@H](O)[C@H](O)[C@H](O)CO [DEX, Dextrose, reference compound]
[1]
  Change in BUN levels: 1.08±2.56
[2]; Fit Subgroup
  RPE: 14±2
  RPE (Borg 6-20 scale): 13.9 ± 1.6
[2]; Unfit Subgroup
  RPE (Borg 6-20 scale): 13.5 ± 1.5
[2]; Unfit Subgroup, p=0.003
  RPE: 14±2
[2]; all measured points of the exercise sessions
  Average rate of perceived exertion, DEX subjects versus DR subjects (FIG. 1): greater

## O=C[C@H](O)[C@H](O)[C@H](O)CO [DR, D-Ribose]
[1]; Fit Subgroup
  Change in BUN levels, DR versus DEX: No differences
[1]
  Change in BUN levels: 0.93±2.66
[2]; Fit Subgroup
  RPE: 14±2
  RPE (Borg 6-20 scale): 13.6 ± 1.8
[2]; Unfit Subgroup
  RPE (Borg 6-20 scale): 13.1 ± 1.6
[2]; Unfit Subgroup, p=0.003
  RPE: 13±2
